# Measured values: PubChem BioAssay (NCI)
# Where “and” joins values, the source holds several entries; their conditions need not be identical. Equal entries are not always repeated.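 Grown in 96-well plates, cells were treated for 48 hours with each compound at five concentrations. Insufficient inhibition: endpoint recorded as highest concentration tested. At the GI50, growth is halved. TGI marks complete inhibition of growth.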
# Assays:
# Test in all cases: inhibition of tumour cell growth, NCI panel, 48 h
# [1] = system: NCI-H460 lung
# [2] = system: HOP-62 NSCLC
# [3] = system: TK-10 renal
# [4] = system: IGROV1 ovarian
# [5] = system: MDA-MB-435
# [6] = system: MDA-MB-231 breast
# [7] = system: SK-MEL-2 melanoma
# [8] = system: OVCAR-5 ovarian
# [9] = system: PC-3 prostate
# [10] = system: EKVX NSCLC
Structure (SMILES),GI50 [1],TGI [1],GI50 [2],TGI [2],GI50 [3],TGI [3],GI50 [4],TGI [4],GI50 [5],TGI [5],GI50 [6],TGI [6],GI50 [7],TGI [7],GI50 [8],TGI [8],GI50 [9],TGI [9],GI50 [10],TGI [10]
COc1ccc(Nc2c3ccccc3nc3[nH]c4ccccc4c23)cc1,2.28 µM,> 50 µM,8.71 µM,23.2 µM,26.7 µM,> 50 µM,16.9 µM,> 50 µM,8.92 µM,> 50 µM,14.5 µM,> 50 µM,> 50 µM,> 50 µM,26.7 µM,> 50 µM,7.87 µM,28.9 µM,10.9 µM,> 50 µM
CCN(CC)CCSCCCNc1c2ccc(Cl)cc2nc2ccc(OC)cc12,0.383 µM,1.58 µM,0.558 µM,2.21 µM,1.55 µM,3.87 µM,1.56 µM,4.74 µM,1.46 µM,2.89 µM,1.01 µM,3 µM,2.06 µM,3.87 µM,1.14 µM,4.39 µM,1.23 µM,3.06 µM,1.73 µM,4.72 µM
CC(=O)Oc1ccc(C(c2ccc(OC(C)=O)cc2)c2ccccn2)cc1,> 78.5 µM,> 100 µM,> 58.3 µM,> 100 µM,> 59.7 µM,> 100 µM,19.9 µM,> 100 µM,53.2 µM,> 100 µM,48 µM,> 100 µM,43.1 µM,> 100 µM,55.7 µM,> 100 µM and 95.4 µM,16.3 µM,> 100 µM,,> 100 µM and 57.1 µM
[Cl][Cd][Cl],1.44 µM and 4.53 µM and 1.16 µM,17.6 µM and 24.9 µM,39.7 µM,93.1 µM,90.5 µM,192 µM,4.32 µM and 29.7 µM and 8.4 µM,> 60.6 µM and 16.1 µM,8.26 µM,30.9 µM,16.5 µM,53.9 µM,16.4 µM and 8.88 µM,24.8 µM and 18.9 µM,> 61.9 µM and 99.2 µM,98.4 µM and 179 µM,10.5 µM,23.6 µM,24.7 µM and 9.95 µM,52 µM and 19.9 µM
CC1=C(/C=C/C(C)=C/C=C/C(C)=C/CO)C(C)(C)CCC1,,> 100 µM,,47.5 µM,,,,57.7 µM,,62.4 µM,,78.5 µM,,44 µM,,61.2 µM,,> 100 µM,,> 100 µM
O=C1OC(c2ccccc2)=N/C1=C\c1cccc(F)c1,,> 100 µM,,92.6 µM,,> 100 µM,,> 100 µM,,> 100 µM,,> 100 µM,,> 100 µM,,> 100 µM,,> 100 µM,,> 100 µM
Cn1cnc([N+](=O)[O-])c1Sc1ncn[nH]1,> 100 µM,> 100 µM,> 100 µM,> 100 µM,98.2 µM,> 100 µM,40.7 µM,> 100 µM,> 100 µM,> 100 µM,> 100 µM,> 100 µM,40.9 µM,> 100 µM,> 100 µM,> 100 µM,> 100 µM,> 100 µM,> 100 µM,> 100 µM
O=[N+]([O-])c1ccc(S(=O)(=O)Cc2ccccc2)c2nonc12,,37.8 µM,,43.1 µM,,32 µM,,37.3 µM,,40.4 µM,,50.7 µM,,42.2 µM,,> 100 µM,,34.6 µM,,41.8 µM
O=C(Nc1ccc(I)cc1F)c1cc(Cl)ccc1O,0.434 µM,> 26.9 µM,2.21 µM,8 µM,1.13 µM,16.3 µM,0.36 µM,> 100 µM,0.583 µM,4.9 µM,0.388 µM,4.56 µM,0.358 µM,1.99 µM,3.55 µM,> 100 µM,1.91 µM,6.5 µM,1.03 µM,6.81 µM
OCCN1CCN(CC/C=C2\c3ccccc3Sc3ccc(Cl)cc32)CC1,1.89 µM and 2.19 µM,3.75 µM and 4.5 µM,4.07 µM and 2.62 µM,14.5 µM and 7.04 µM,4.59 µM and 2.07 µM,19.4 µM and 5.62 µM,3.21 µM and 3.51 µM,12.7 µM and 11 µM,1.99 µM and 2.01 µM,4.78 µM and 4.63 µM,2.62 µM and 2.09 µM,12 µM and 6.46 µM,2.75 µM and 2.26 µM,5.98 µM and 4.9 µM,3.75 µM and 11.8 µM,14.1 µM and 24.9 µM,2.75 µM and 2.96 µM,11.8 µM and 13.4 µM,5.78 µM and 6.11 µM,23.7 µM and 21 µM
CSc1cccc(NC(=O)OC2CCCCCCCCCCC2)c1,,35.2 µM,,48.3 µM,,75.1 µM,,> 100 µM,,39.9 µM,,66.8 µM,,39.4 µM,,> 100 µM,,> 100 µM,,57.6 µM
Cc1c(Sc2ccccc2)[n+](=O)c2cc(Cl)c(Cl)cc2n1[O-],> 100 µM,> 100 µM,> 100 µM,> 100 µM,26.1 µM,70.6 µM,15.5 µM,38 µM,95.6 µM,> 100 µM,35.7 µM,> 100 µM,> 100 µM,> 100 µM,> 100 µM,> 100 µM,> 100 µM,> 100 µM,> 100 µM,> 100 µM
CCn1c2ccccc2c2cc(C(O)c3cccc4ncccc34)ccc21 (centres undefined),0.0388 µM,4.61 µM,0.0507 µM,> 73.3 µM,3.7 µM,> 78.6 µM,0.174 µM,> 100 µM,0.0215 µM,0.06 µM,0.128 µM,11.4 µM,0.0543 µM,39.4 µM,3.25 µM,> 100 µM,0.0413 µM,> 85.7 µM,0.0864 µM,> 100 µM
CC(C)CCN[C@@H]1CCc2cc(O)c(N3CC(=O)NS3(=O)=O)c(F)c2C1,> 100 µM,> 100 µM,> 100 µM,> 100 µM,> 100 µM,> 100 µM,> 100 µM,> 100 µM,> 100 µM,> 100 µM,> 100 µM,> 100 µM,> 100 µM,> 100 µM,> 100 µM,> 100 µM,> 100 µM,> 100 µM,> 100 µM,> 100 µM
CNC(=O)OCC1C2=C(C(=O)C(C)=C(N)C2=O)N2CC3C(N3C)C12OC (centres undefined),,10 µM,,> 100 µM,,> 100 µM,,26.1 µM,,> 100 µM,,> 100 µM,,55.7 µM,,> 100 µM,,64.7 µM,,> 100 µM
O=C1OC(CN2CCOCC2)CN1/N=C/c1ccc([N+](=O)[O-])o1 (centres undefined),,> 100 µM,,> 100 µM,,> 100 µM,,84.8 µM,,33.3 µM,,> 100 µM,,> 100 µM,,> 100 µM,,> 100 µM,,> 100 µM
CC(C)COC(=O)c1ccc2[nH]c(O)c(C=Nc3ccc(S(N)(=O)=O)cc3)c2c1,0.787 µM,3.41 µM,1.58 µM,4.84 µM,1.65 µM,4.52 µM,1.75 µM,8.01 µM,1.68 µM,5.79 µM,0.915 µM,6.76 µM,1.73 µM,4.19 µM,1.87 µM,13.8 µM,1.6 µM,6.54 µM,3.97 µM,15.6 µM
CN(C)CCN1C(=O)c2cccc3cccc(c23)C1=O,8.26 µM,> 25 µM,> 25 µM,> 25 µM,12.3 µM,> 25 µM,,,> 25 µM,> 25 µM,> 25 µM,> 25 µM,> 25 µM,> 25 µM,18.1 µM,> 25 µM,18.7 µM,> 25 µM,> 25 µM,> 25 µM
NCCSCCc1ccccc1,,> 100 µM,,> 100 µM,,> 100 µM,,> 100 µM,,> 100 µM,,> 100 µM,,> 100 µM,,> 100 µM,,> 100 µM,,> 100 µM
CCc1nc(N)nc(N)c1-c1ccc(Cl)c(N=CN(C)C)c1,,> 95.2 µM,,> 100 µM,,> 100 µM,,> 100 µM,,> 100 µM,,> 100 µM,,> 100 µM,,> 100 µM,,> 100 µM,,> 100 µM
O=C1C=CC(O)C2C1CC13SSC4(CC5C(=O)C=CC(O)C5N4C1=O)C(=O)N23 (centres undefined),,> 34.2 µM,,1.15 µM,,1.81 µM,,3.43 µM,,0.434 µM,,0.947 µM,,3.56 µM,,0.571 µM,,1.13 µM,,2.33 µM
C=CCCCc1ccc(C(O)CCCCCCCCCCCC)o1 (centres undefined),22 µM,60.7 µM,16 µM,30.2 µM,21 µM,38.3 µM,19.5 µM,44.9 µM,26.2 µM,58.7 µM,15.6 µM,29.8 µM,19.5 µM,42.9 µM,15.9 µM,30.4 µM,19.8 µM,46 µM,20.1 µM,37.5 µM
Cc1cc(OCc2nnc3n2N=C(c2ccc(Cl)cc2Cl)CS3)ccc1Cl,62.8 µM,> 100 µM,> 100 µM,> 100 µM,32 µM,> 100 µM,52.3 µM,> 100 µM,26.5 µM,> 100 µM,30.8 µM,90.4 µM,76.2 µM,> 100 µM,> 100 µM,> 100 µM,51.3 µM,> 100 µM,6.89 µM,81.2 µM
C=C1c2c(Cl)ccc(O)c2C(O)=C2C(=O)[C@]3(O)C(O)=C(C(N)=O)C(=O)[C@@H](N(C)C)[C@@H]3[C@@H](O)[C@H]12,1.17 µM,7.54 µM,0.984 µM,3.1 µM,0.656 µM,3.41 µM,1.03 µM,5.22 µM,1.53 µM,7.97 µM,1.07 µM,2.93 µM,0.727 µM,1.98 µM,2.09 µM,25.4 µM,1.34 µM,31.4 µM,1.51 µM,13 µM
CN1C(Cl)=NS(=O)(=O)c2ccccc21,,> 100 µM,,> 100 µM,,> 100 µM,,> 100 µM,,> 100 µM,,> 100 µM,,> 100 µM,,> 100 µM,,> 100 µM,,> 100 µM
Clc1nc(Cl)c2ncn(Cc3ccc(Cn4cnc5c(Cl)nc(Cl)nc54)cc3)c2n1,4.75 µM,22.2 µM,6.73 µM,21.5 µM,15.6 µM,35.2 µM,6.08 µM,20.6 µM,14.2 µM,33.6 µM,3.23 µM,22.4 µM,10.8 µM,34.9 µM,2.03 µM,10.9 µM,1.56 µM,16.3 µM,,25 µM
COc1cc2c(c(OC3OC(CO)C(O)C(O)C3O)c1)C(=O)CC(c1ccc(O)cc1)O2 (centres undefined),,> 100 µM,,,,> 100 µM,,> 100 µM,,> 100 µM,,> 100 µM,,> 100 µM,,> 100 µM,,> 100 µM,,> 100 µM
CO[C@H]1CC(c2ccc[nH]2)=N[C@]12O[C@@H](C)C[C@@H]1CCCCCCCc3ccc([nH]3)[C@H]12,0.813 µM,6.07 µM,1.35 µM,14.9 µM,2.33 µM,> 29.6 µM,1.38 µM,10.8 µM,1.1 µM,4.29 µM,0.853 µM,5.23 µM,1.03 µM,4.21 µM,1.25 µM,6.22 µM,0.78 µM,20.7 µM,0.975 µM,7.3 µM
N#Cc1cc(S(=O)(=O)Nc2nc3ccccc3s2)c(SCc2ccccc2)cc1Cl,18.4 µM,> 100 µM,24.5 µM,45.7 µM,37.3 µM,97.5 µM,18.1 µM,46.6 µM,23.8 µM,49.5 µM,26.7 µM,82.6 µM,15.3 µM,36.8 µM,23.8 µM,54.7 µM,23.1 µM,51.1 µM,17.1 µM,34.5 µM
